The target in one test is T1, F1F0-ATPase (Bos taurus, UniProt P13621).
T1 construct: from tissue
The test is described as follows: Inhibition of F1F0-ATPase activity in synthesizing ATP (ATP synthesis inhibition). The format is biochemical. The settings on record: detection limit IC50=16 μM, read-out: ATP Syn IC50. Here is the method:
(§1) Exemplary compounds described in above Examples were tested for activity against F1F0-ATPase by measuring the ability of the compounds to inhibit ATP synthesis. In addition, the compounds were assessed for cytotoxicity in Ramos cells. Inhibition of F1F0-ATPase activity in synthesizing ATP and cytotoxicity in Ramos cells were measured according to the procedures described in K. M. Johnson et al. Chemistry & Biology 2005, 12, 485-496.

Another test has as its system Ramos cells. Briefly: Cytotoxicity in Ramos cells. It counts as cell-based. The settings on record: detection limit EC50=16 μM, read-out: Ramos Cell EC50. Here is the method: as §1

Like-named read-outs stand apart in the source and are kept apart here.

`Cn1cc(C(=O)N=C(Nc2cc(-c3ccc(O)cc3F)n[nH]2)NC2CCCC2)c(C(F)(F)F)n1` [Compound A-137]: the IC50 at F1F0-ATPase is > 16 µM. In addition, the EC50 in the test with Ramos cells (Homo sapiens) was > 16 µM.

Regarding `Cn1cc(C(=O)/N=C(/Nc2ccc(C(C)(C)C)cc2)Nc2cc(-c3ccc(O)c(F)c3)n[nH]2)c(C(F)(F)F)n1` [Compound A-165], the IC50 on F1F0-ATPase was < 5 µM. Also, the EC50 in the test on Ramos cells was < 5 µM.

`Cn1cc(C(=O)/N=C(/Nc2cccc(F)c2)Nc2cc(-c3ccc(O)c(F)c3)n[nH]2)c(C(F)(F)F)n1` [Compound A-166]: the IC50 on F1F0-ATPase is < 5 µM. In addition, the EC50 in the test with Ramos cells was < 5 µM.

In the case of `Cn1cc(C(=O)N=C(Nc2cc(-c3ccc(O)c(F)c3)n[nH]2)Nc2cc(Cl)ccc2F)c(C(F)(F)F)n1` [Compound A-168], at F1F0-ATPase, the IC50 is < 5 µM. Besides, in the test on Ramos cells (Homo sapiens), the EC50 is 5 to 16 µM.

As for `Cc1oncc1C(=O)/N=C(/NCC(C)C)Nc1cc(-c2cc(F)cc(F)c2)n[nH]1` [Compound A-79], the IC50 on F1F0-ATPase is > 16 µM. Also, the EC50 with Ramos cells is > 16 µM.

As to `Cn1cc(C(=O)/N=C(/NCC(C)(C)C)Nc2cc(-c3ccc(O)cc3F)[nH]n2)c(C(F)(F)F)n1` [Compound A-138], at F1F0-ATPase, the IC50 was > 16 µM. For the same compound, the EC50 in the test on Ramos cells is > 16 µM.

For `Cc1ccccc1CN/C(=N/C(=O)c1cc(C(C)(C)C)nn1C)Nc1cc(-c2ccc(F)cc2)n[nH]1` [Compound A-44], the IC50 at F1F0-ATPase was < 5 µM. For the same compound, the EC50 in the test on Ramos cells was < 5 µM.

Take `CCC(C)N/C(=N/C(=O)c1cc(C)oc1C)Nc1cc(-c2ccc(F)cc2)n[nH]1` (centres unmarked) [Compound A-197]: the IC50 at F1F0-ATPase is 5 to 16 µM. Also, the EC50 in the test on Ramos cells lay within 5 to 16 µM.

For `CCn1nc(C)cc1C(=O)N=C(Nc1cc(-c2ccc(F)cc2)n[nH]1)NC(C)COC` (centres unmarked) [Compound A-55], at F1F0-ATPase, the IC50 lay within 5 to 16 µM. Also, the EC50 in the test on Ramos cells lay in the range of 5 to 16 µM.

As to `Cc1oncc1C(=O)/N=C(\Nc1cc(-c2cc(F)cc(Cl)c2)n[nH]1)NC1CCC1` [Compound A-102], at F1F0-ATPase, the IC50 is < 5 µM. Further, the EC50 in the test on Ramos cells was < 5 µM.

As to `Cc1oncc1C(=O)/N=C(/NCCCOC(C)C)Nc1cc(-c2cc(F)cc(Cl)c2)[nH]n1` [Compound A-103], at F1F0-ATPase, the IC50 was > 16 µM. The EC50 in the test with Ramos cells was > 16 µM.

For the compound `COC[C@H](C)N/C(=N/C(=O)c1cc(C)nn1C)Nc1cc(-c2cc(F)cc(F)c2)[nH]n1` [Compound A-84], the IC50 at F1F0-ATPase is 5 to 16 µM. Further, in the test on Ramos cells, the EC50 is > 16 µM.

With `CSc1cccc(N/C(=N\C(=O)c2cn(C)nc2C(F)(F)F)Nc2cc(-c3ccc(O)cc3F)n[nH]2)c1` [Compound A-7], the IC50 on F1F0-ATPase lay in the range of 5 to 16 µM. In the test with Ramos cells, the EC50 was < 5 µM.

For `CCn1ccc(C(=O)/N=C(\Nc2cc(-c3ccc(F)cc3)n[nH]2)NC(C)C)n1` [Compound A-62], the IC50 at F1F0-ATPase was > 16 µM. The EC50 with Ramos cells was > 16 µM.

As for `Cn1cc(C(=O)/N=C(\NCC(C)(C)C)Nc2cc(-c3cc(F)cc(F)c3)n[nH]2)c(C(F)(F)F)n1` [Compound A-31], on F1F0-ATPase, the IC50 was < 5 µM. The EC50 with Ramos cells is < 5 µM.

On to `Cn1cc(C(=O)/N=C(\Nc2n[nH]c3cncc(F)c23)NC(C)(C)C)c(C(F)(F)F)n1` [Compound A-141], for which the IC50 on F1F0-ATPase lay within 5 to 16 µM. Further, the EC50 in the test on Ramos cells was in the range of 5 to 16 µM.

As to `CCOC(=O)NC1CCC(N/C(=N\C(=O)c2cc(C)oc2C(F)(F)F)NCc2ccc(F)cc2Cl)CC1` (centres unmarked) [Compound A-126], the IC50 on F1F0-ATPase was < 5 µM. The EC50 with Ramos cells (Homo sapiens) is < 5 µM.

As to `CC(C)N/C(=N/C(=O)c1ccn(C(C)C)n1)Nc1cc(-c2ccc(F)cc2)n[nH]1` [Compound A-57], the IC50 on F1F0-ATPase is 5 to 16 µM. In addition, in the test with Ramos cells, the EC50 lay in the range of 5 to 16 µM.

With `Cc1oncc1C(=O)/N=C(\Nc1cc(-c2cc(F)cc(Cl)c2)n[nH]1)NC(C)C` [Compound A-100], the IC50 on F1F0-ATPase is < 5 µM. Moreover, in the test with Ramos cells, the EC50 is < 5 µM.

Consider `Cn1cc(C(=O)/N=C(/Nc2cc(-c3cc(F)cc(F)c3)n[nH]2)NC(C)(C)C)c(C(F)(F)F)n1` [Compound A-25], for which the IC50 at F1F0-ATPase is < 5 µM. For the same compound, the EC50 with Ramos cells is < 5 µM.

In the case of `CCn1nc(C)cc1C(=O)/N=C(\Nc1cc(-c2ccc(F)cc2)n[nH]1)NC(C)(C)C` [Compound A-53], the IC50 at F1F0-ATPase was < 5 µM. Also, the EC50 in the test on Ramos cells was < 5 µM.

Take `COC[C@H](C)N/C(=N/C(=O)c1cnoc1C)Nc1cc(-c2cc(F)cc(F)c2)[nH]n1` [Compound A-80]: at F1F0-ATPase, the IC50 lay in the range of 5 to 16 µM. In the test with Ramos cells, the EC50 was > 16 µM.

With `CCOCCCNC(=NC(=O)c1cc(C)oc1C(F)(F)F)Nc1cc(-c2ccc(F)cc2)n[nH]1` [Compound A-199], the IC50 on F1F0-ATPase is < 5 µM. Also, in the test on Ramos cells (Homo sapiens), the EC50 is < 5 µM.

Consider `Cc1cc(N/C(=N\C(=O)c2cc(C)oc2C(F)(F)F)Nc2cc(F)cc(Cl)c2)n[nH]1` [Compound A-108], for which the IC50 at F1F0-ATPase is < 5 µM. Further, in the test with Ramos cells, the EC50 lay within 5 to 16 µM.

For `Cn1cc(C(=O)/N=C(\Nc2cc(-c3cc(O)ccc3Cl)n[nH]2)NC(C)(C)C)c(C(F)(F)F)n1` [Compound A-181], the IC50 on F1F0-ATPase is < 5 µM. For the same compound, the EC50 in the test with Ramos cells fell in the range of 5 to 16 µM.

Take `CC(C)CN/C(=N/C(=O)c1cn(C)nc1C(F)(F)F)Nc1cc(-c2ccc(O)cc2F)n[nH]1` [Compound 4, N-(((3-(2-Fluoro-4-hydroxyphenyl)-1H-pyrazol-5-yl)amino)(isobutylamino)methylene)-1-methyl-3-(trifluoromethyl)-1H-pyrazole-4-carboxamide]: at F1F0-ATPase, the half-maximal inhibitory concentration (IC50) was > 16 µM. Further, in the test on Ramos cells (Homo sapiens), the half-maximal effective concentration (EC50) is > 16 µM.

Take `Cc1oncc1C(=O)N=C(Nc1cc(-c2ccc(F)cc2)n[nH]1)NC1CCCC1` [Compound A-124]: on F1F0-ATPase, the IC50 is > 16 µM. Moreover, in the test with Ramos cells (Homo sapiens), the EC50 was > 16 µM.

`COc1ccc(-c2cc(N/C(=N\C(=O)c3cn(C)nc3C(F)(F)F)Nc3cccc(Cl)c3)[nH]n2)cc1F` [Compound A-154]: the IC50 on F1F0-ATPase was < 5 µM. Further, in the test with Ramos cells, the EC50 was > 16 µM.

`CC(C)n1ccc(C(=O)/N=C(\Nc2cc(-c3ccc(F)cc3)n[nH]2)NC(C)(C)C)n1` [Compound A-56]: the IC50 on F1F0-ATPase was < 5 µM. Moreover, the EC50 in the test on Ramos cells lay in the range of 5 to 16 µM.

For the compound `Cn1nc(C(C)(C)C)cc1C(=O)/N=C(\Nc1cc(-c2ccc(Cl)cc2)n[nH]1)NC(C)(C)C` [Compound A-72], at F1F0-ATPase, the IC50 is < 5 µM. In the test with Ramos cells, the EC50 is < 5 µM.

For `Cn1cc(C(=O)/N=C(/Nc2cc(-c3cc(F)cc(F)c3)n[nH]2)NC2CCC2)c(C(F)(F)F)n1` [Compound A-28], the IC50 on F1F0-ATPase was < 5 µM. For the same compound, the EC50 in the test with Ramos cells was < 5 µM.

In the case of `COc1ccc(-c2cc(N/C(=N\C(=O)c3cn(C)nc3C(F)(F)F)Nc3ccccc3C(C)(C)C)[nH]n2)cc1F` [Compound A-158], the IC50 on F1F0-ATPase is < 5 µM. Moreover, the EC50 with Ramos cells was > 16 µM.

On to `CCOCCCN/C(=N/C(=O)c1cnoc1C)Nc1cc(-c2ccc(F)cc2)n[nH]1` [Compound A-105], for which, on F1F0-ATPase, the IC50 was > 16 µM. In addition, the EC50 with Ramos cells is > 16 µM.

Take `Cc1ccc(-c2cc(N/C(=N\C(=O)c3cnoc3C)NC3(C)CCCC3)[nH]n2)cc1F` [Compound A-92]: the IC50 at F1F0-ATPase is < 5 µM. Moreover, the EC50 in the test with Ramos cells was < 5 µM.

As to `Cc1cc(C(=O)/N=C(\Nc2cc(-c3cc(F)cc(F)c3)[nH]n2)NC(C)(C)C)c(C(F)(F)F)o1` [Compound A-114], at F1F0-ATPase, the half-maximal inhibitory concentration (IC50) was 5 to 16 µM. Besides, the EC50 in the test with Ramos cells is 5 to 16 µM.

For the compound `Cc1oncc1C(=O)N=C(Nc1cc(-c2ccc(Cl)cc2)n[nH]1)NC(C)C` [Compound A-70], at F1F0-ATPase, the IC50 was > 16 µM. In addition, in the test on Ramos cells (Homo sapiens), the EC50 is > 16 µM.

Take `O=C(/N=C(/NCc1ccc(F)cc1Cl)Nc1cc(C(F)(F)F)n[nH]1)c1nccs1` [Compound A-198]: the IC50 on F1F0-ATPase is < 5 µM. The EC50 in the test with Ramos cells is < 5 µM.
